Where “and” joins values, the source holds several entries; their conditions need not be identical. Identical values can stand only once.
Assays:
[1] = tested on: dog atrial and ventricular tissue; experiment: Atrial and ventricular action potential parameters after chronic oral treatment of non-instrumented dogs; assay type: in vivo, Beagle dogs; conditions: 500 ms cycle length, 4-week oral DEA 30 or AMIO 45 mg/kg/day
[2] = tested on: rats; experiment: Chronic 28-day non-GLP toxicology in rats
[3] = tested on: conscious dogs with structural atrial remodelling; experiment: Chronic rapid atrial pacing induced atrial remodelling and burst-induced atrial fibrillation in conscious dogs
Method: The experiments were performed on chronically instrumented Beagle dogs of both sexes, weighing 12-13 kg. The animals were subjected to the following surgery under general anaesthesia: pacemakers were implanted into bilateral subcutaneous pockets in the neck area (Logos, Karios; Biotronik Hungaria Ltd.) and were attached to pacemaker electrodes implanted into the right ventricle and right atrium. Radiofrequency catheter ablation was performed in each animal to achieve third degree atrioventricular (AV) block so that during subsequent rapid atrial pacing (400/min) the ventricles are protected from high heart rates. […] On the seventh day after surgery, following the measurement of right atrial effective refractory period the atrial pacemaker was set to a frequency of 400/min to achieve atrial electrical and structural remodelling. Right atrial rapid pacing is necessary to maintain for 3 months in this model to obtain complete remodeling of the atria signalled by the reduction of right atrial effective refractory period below 80 ms.
(§1) The body weight of animals was monitored for strict adherence to the desired dose.
(§2) The right atrial effective refractory period (ERP) was measured using the S1 -S2 protocol at cycle lengths of 150 and 300 ms. In addition ERP monitoring, 10-second long burst stimuli were applied at 800/min frequency to induce atrial fibrillation and the incidence of AF, the duration of AF episodes were measured before commencement of oral drug therapy and then after the initiation of therapy every 4 days.

[4] = tested on: conscious rats
Method: The present experiments were performed on male, Sprague-Dawley CFY rats weighing 260-300 g. During a preliminary open-chest surgery we applied a loose silk loop around the left main coronary artery, and then the chest was closed (Leprán et al., 1983). Seven-eight days after the preliminary surgery—after complete recovery and healing—the loose silk loop was tightened to occlude the coronary artery in conscious, freely moving animals. During the first 15 min of myocardial infarction a bipolar ECG was recorded continuously (PowerLab 8SP, ADInstruments, Great Britain).
We followed the survival rate during the acute phase (first 15 min) and during the subsequent 16 hours after coronary artery occlusion. The incidence and duration of arrhythmias in the acute phase were evaluated according to the Lambeth Conventions (Walker et al., 1988), i.e. ventricular fibrillation, ventricular tachycardia, and other types of arrhythmias, including ventricular extrasystoles, bigeminy, and salvos. The size of myocardial infarction was measured in the animals surviving for 16 hours after coronary artery occlusion using nitrotetrazolium-blue dye staining.
Long-term oral pretreatment was applied for 1 month before the coronary artery occlusion. […] Control animals were given the vehicle in a volume of 5 ml/kg.

[5] = Plasma and tissue DEA and AMIO levels in non-instrumented dogs; conditions: 4-week oral AMIO 45 mg/kg/day, individual dogs 1 and 2
[6] = Cardiac, liver and lung tissue DEA and AMIO levels in dogs with atrial fibrillation and structural atrial remodelling; conditions: for concentration at 4 weeks: both, Beagle, dog, oral, 50 mg/kg/day
Method: as §1, §2
Cardiac tissue drug levels were measured in right atrial, left atrial, right ventricular and left ventricular tissue samples. Following the sacrifice of the animals (the subsequent day after the 4-week treatment), tissue samples were taken before tissue preparations were isolated for in vitro studies.

[7] = dogs with AF, 4-week oral AMIO 50 mg/kg/day
[8] = dogs with structural atrial remodelling, 4-week oral AMIO 50 mg/kg/day

Structure (SMILES): CCCCc1oc2ccccc2c1C(=O)c1cc(I)c(OCCN(CC)CC)c(I)c1 [AMIO, amiodarone]
- Vmax (V/s), Dog atrium ([1]; n = 3, CONTROL 249.7 ± 52.7): 252.9 ± 56.7 V/s
- APD90 (ms), Dog atrium ([1]; n = 4, CONTROL 123.9 ± 9.6): 140.8 ± 12.4 ms
- Hepatic function alterations (total cholesterol, alkaline phosphatase [ALP]) ([2]; 28-day oral AMIO 200 mg/kg/day compared to DEA 100 mg/kg/day): more robust
- Alveolar histiocytosis in the lungs ([2]; 28-day oral AMIO 200 mg/kg/day or DEA 100 mg/kg/day): alveolar histiocytosis was detected
- Detection of the administered drug 14 days after the completion of administration ([2]; 28-day oral AMIO 200 mg/kg/day or DEA 100 mg/kg/day, plasma (DEA: plasma or cardiac tissue)): could be detected in plasma samples
- Increase in body weight following 28-day treatment ([2]; AMIO 200 mg/kg/day or DEA 100 mg/kg/day, normal increase 44 g): 13 g
- Food consumption and appetite ([2]; first 3 weeks of 200 mg/kg/day AMIO, compared to control and 100 mg/kg/day DEA treated animals): reduced
- Mood, behaviour, appetite and body weight ([3]; dogs, 4-week oral, DEA 25, AMIO 50 mg/kg/day): loss of appetite followed by a reduction in body weight
- Lg AF duration, Following 4-week treatment, individual animals ([3]; oral AMIO 50 mg/kg/day, Control (before) 2.59, 3.12, 4.35): 1.35 and 0.88 and 0.12
- AF duration (s), Following 4-week treatment, individual animals ([3]; oral AMIO 50 mg/kg/day, Control (before) 386.5, 1 302.9, 2 2663.7): 22.5 s and 7.5 s and 1.31 s
- ERP, Following 4-week treatment, individual animals ([3]; oral AMIO 50 mg/kg/day, animals 2011/01, 2011/08, 2011/9, Control (before) 90, <80, 80): 100 ms (2×) and 130 ms
- Incidence of AF, Following 4-week treatment, individual animals ([3]; oral AMIO 50 mg/kg/day, burst-induced AF, Control (before) 100%, 90%, 67%): 40% and 10% (2×)
- Lg AF duration, Following 4-week treatment, Mean ± SE ([3]; oral AMIO 50 mg/kg/day, n=3, Control (before) 3.35 ± 0.52): 0.78 ± 0.36
- Incidence of AF, Following 4-week treatment, Mean ± SE ([3]; oral AMIO 50 mg/kg/day, n=3, Control (before) 88.0 ± 10.54): 20.0 ± 10.0 %
- AF duration (s), Following 4-week treatment, Mean ± SE ([3]; oral AMIO 50 mg/kg/day, n=3, Control (before) 8117.7 ± 7277.8): 10.4 ± 6.29 s
- Incidence and duration of atrial fibrillation ([3]; three animals, 4-week oral treatment, DEA 25, AMIO 50 mg/kg/day, accompanied by prolongation of the ERP): showed a decreasing tendency
- Death due to the 1 month treatment ([4]; 1 month oral pretreatment): No death occurred
- Survival rate during the acute phase of experimental myocardial infarction ([4]; 1 month oral pretreatment): significantly improved
- Behavioral changes, body weight increments ([4]; 1 month oral pretreatment, AMIO 30 or 100, DEA 15 or 50 mg/kg/day): Neither AMIO nor DEA produced any behavioral changes of the animals, or in body weight increments
- Arrhythmia score ([4]; first 15 min after coronary artery occlusion, 1 month oral AMIO 100 or DEA 50 mg/kg/day, control 4.77±0.33): 2.05±0.52
- Incidence of ventricular fibrillation ([4]; larger doses (AMIO 100, DEA 50 mg/kg/day), after coronary artery occlusion): significantly decreased
- Kidney AMIO level [5]: 112.173 μg/tissue g
- Left Ventricle AMIO level [5]: 81.928 μg/tissue g
- Liver AMIO level [5]: 177.317 μg/tissue g
- Lung AMIO level [5]: 178.360 μg/tissue g
- Right Atrium AMIO level [5]: 75.854 μg/tissue g and 152.023 μg/tissue g
- Liver and lung tissue concentrations of DEA in chronic AMIO treated dogs compared to chronic DEA treated dogs ([6]; AF model dogs, oral AMIO 50 mg/kg/day vs DEA 25 mg/kg/day): more than three times higher
- concentration at 4 weeks ([6]; left atrium, Left atrium AMIO level, Mean, dogs with AF, 4-week oral AMIO 50 mg/kg/day, n=3): 35200 ng/g
- concentration at 4 weeks ([6]; left atrium, Left atrium AMIO level, individual animals, dogs with AF, 4-week oral AMIO 50 mg/kg/day): 32600 ng/g
- concentration at 4 weeks ([6]; left ventricle, Left ventricle AMIO level, Mean, dogs with AF, 4-week oral AMIO 50 mg/kg/day, n=3): 34400 ng/g
- concentration at 4 weeks ([6]; left ventricle, Left ventricle AMIO level, individual animals, dogs with AF, 4-week oral AMIO 50 mg/kg/day): 36600 ng/g
- concentration at 4 weeks ([6]; right atrium, Right atrium AMIO level, Mean, dogs with AF, 4-week oral AMIO 50 mg/kg/day, n=3): 24600 ng/g
- concentration at 4 weeks ([6]; right ventricle, Right ventricle AMIO level, Mean, dogs with AF, 4-week oral AMIO 50 mg/kg/day, n=3): 34700 ng/g
- concentration at 4 weeks ([6]; right ventricle, Right ventricle AMIO level, individual animals, dogs with AF, 4-week oral AMIO 50 mg/kg/day): 40800 ng/g
- Left atrium AMIO level, individual animals [6, 7]: 39.045 μg/tissue g and 33.89 μg/tissue g
- Left ventricle AMIO level, individual animals [6, 7]: 42.573 μg/tissue g and 24.061 μg/tissue g
- Right atrium AMIO level, individual animals [6, 7]: 47.005 μg/tissue g and 19.936 μg/tissue g and 6.933 μg/tissue g
- Right ventricle AMIO level, individual animals [6, 7]: 37.033 μg/tissue g and 26.349 μg/tissue g
- Liver AMIO level, Mean ± SE [6, 8]: 126.8 ± 41.58 μg/tissue g
- Liver AMIO level, individual animals [6, 8]: 123.961 μg/tissue g and 200.27 μg/tissue g and 56.314 μg/tissue g
- Lung AMIO level, Mean ± SE [6, 8]: 215.1 ± 60.12 μg/tissue g
- Lung AMIO level, individual animals [6, 8]: 312.24 μg/tissue g and 227.793 μg/tissue g and 105.152 μg/tissue g
